From US20050113366A1 (priority 2000, published 2005)
Where a name gives a salt, the structure may show the parent alone. Read-outs that look alike come from different tables or passages of the source.

Legend:
[1] = system: slow wave sleep; assay: EEG study of the duration of slow wave sleep in rats after i.p. injection; format: in vivo, Male Wistar rats; conditions: for Duration of slow wave sleep: 3 h EEG recording, mean ± SEM; for Increase of the duration of slow wave sleep: versus NaCl
Source text: Male Wistar rats, weighing 200 g at the beginning of the experiment, coming from the Centre d'Elevage Janvier (Route des Chenes-Secs, Le Genest St-Isle, 53940 France) were used for this study.
After eight days of adaptation to the breeding conditions at the Animalerie Centrale de la Faculte de Medecine (11, rue Humann 67084 Strasbourg), these animals were placed in individual cages (Makrolon type cages 3H, 425×266×150) in a standard (7 a.m./7 p.m.) day/night rhythm, with water and food (UAR ref. A04) continually available to them. The animals were then transferred to an experimentation facility on supports capable of receiving 24 cages.
The surgical procedure is the following: after one month of becoming accustomed to the (10 a.m./10 p.m.) day/night cycle, the rats are weighed and then anesthetized with ketamine (Imalgene 500 Merial) at a dose of 150 mg/kg i.p. After having placed the animal in a stereotactic frame (Narishige), a rostrocaudal incision is made using a sterilized scalpel (No. 3 blade, Swann-Morton England).
The parietal bone sutures, Lambda and Bregma, are exposed serve as stereotactic reference (point 0). After having perforated the cranial casing using a dental drill without infringing on the meninges (Minitor Narishige), two stainless steel screws 500 μm in diameter (Magister, 4 rue du Lac 25130 Villers Le Lac) are implanted at the following coordinates: Bregma AP: ±4 mm and ML: ±3 mm.
Two copper wires are soldered with tin to the screws, on one hand, and to the female connector, on the other hand (VP Electronic, Square de la Poteme, 91302 Massy Cedex). The assembly which is realized is then covered with a polymerizing resin (Paladur, Kulzer, Germany).
The implanted rats are then placed in their respective cages. A post-operative period greater than 48 h is complied with before any recording.
All the EEG recordings are made during the first hours of the dark [sic; light] phase (that is, between 10 a.m. and 1 p.m.), which represents the period of awakening and intense activity of the animals.
The rats are placed in a cage made of Plexiglas (170×170×300), and after a 30 min period of becoming accustomed to their new environment, they are recorded continuously for a duration of 3 h after i.p. injection (2 mL/kg) of 0.9% NaCl or the ligand to be studied. The EEG graph is made using an 8-track recorder (Alvar Electronic, 6 rue du Progres, 93511-Montreuil) with a running speed of 0.5 cm/s.
The total durations of slow wave sleep for each animal are evaluated in 20 min sections for the total duration of the 3 h recording (1 cm=2 seconds).
The statistical comparison is made using an analysis of variance test (Anova) followed by a multiple comparison test. […]
The numbers in parentheses correspond to the percentages of slow wave sleep with respect to the total duration of sleep.

[2] = biological target: GHB receptors (Rattus norvegicus, UniProt P11275); assay: Displacement of 3H-GHB binding on rat brain membranes; parameters: species or system Wistar rats
[3] = in cats; cited from earlier work
[4] = read-out: IC50 (concentration displacing 50% of the reversible binding of 3H-GHB), rat brain membranes, potassium phosphate buffer pH 6.0, 30 min in ice

Sequence of GHB receptors (P11275 whole entry): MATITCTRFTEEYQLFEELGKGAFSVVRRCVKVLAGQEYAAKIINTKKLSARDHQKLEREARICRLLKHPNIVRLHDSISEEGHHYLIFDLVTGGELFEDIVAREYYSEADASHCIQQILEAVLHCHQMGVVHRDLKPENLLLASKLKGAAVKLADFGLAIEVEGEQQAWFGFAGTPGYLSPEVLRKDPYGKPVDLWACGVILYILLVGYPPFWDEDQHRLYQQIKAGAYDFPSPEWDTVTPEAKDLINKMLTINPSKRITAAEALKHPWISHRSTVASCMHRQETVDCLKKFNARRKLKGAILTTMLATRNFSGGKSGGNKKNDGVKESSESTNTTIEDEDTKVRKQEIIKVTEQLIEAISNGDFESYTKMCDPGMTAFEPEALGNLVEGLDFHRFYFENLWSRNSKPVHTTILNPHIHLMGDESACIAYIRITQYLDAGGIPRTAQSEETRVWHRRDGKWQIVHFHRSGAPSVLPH

Molecule: O=C(O)CCC(O)c1ccc(Cl)c(Cl)c1 (centres unmarked) [Compound 2, Sodium salt of 4-(3,4 dichlorophenyl)-4-hydroxybutanoic acid]
- Percentage of slow wave sleep with respect to the total duration of sleep (in parentheses) ([1]; 0.28 mmol/kg i.p.): 23%
- Duration of slow wave sleep ([1]; 0.28 mmol/kg i.p.): 53 ± 7 min
- Increase of the duration of slow wave sleep ([1]; 0.28 mmol/kg i.p.): 42 min

Molecule: Sodium salt of 4-hydroxy-4-(phenoxathiin-2 or 3-yl) butanoic acid isomer B [Compound 29]
- IC50 [2, 4]: 900 nM

Molecule: O=C(O)CCC(O)c1ccc2c(c1)-c1ccccc1C2 (centres unmarked) [Compound 32, Sodium salt of 4-(9H-fluoren-3-yl)hydroxybutanoic acid]
- IC50 [2, 4]: 300 nM

Molecule: O=C(O)CCCO [GHB, γ-hydroxybutyrate]
- half-life [3]: approximately one

Molecule: Sodium salts of 4-hydroxy-4-(4-oxo-4,5-dihydro-3H-pyridazo(4,5-b)indol-8 and 6-yl)butanoic acids 8/6 isomer mixture [Compound 33]
- IC50 [2, 4]: 200 nM

Molecule: Sodium salt of 4-hydroxy-4-(phenoxathiin-2 or 3-yl)butanoic acid isomer A [Compound 28]
- IC50 [2, 4]: 100 nM

Molecule: CC1(C)Cc2cc(C(O)CCC(=O)O)ccc2NC1=O (centres unmarked) [Compound 40, Sodium salt of 4-(3,3-dimethyl-2-oxo-1,2,3,4-tetrahydroquinolin-6-yl)-4-hydroxybutanoic acid]
- IC50 [2, 4]: 1100 nM

Molecule: O=C([O-])CCC(O)c1cc2c3c(cccc3c1)CC2.[Na+] (centres unmarked) [Compound 24, Sodium salt of 4-(1,2-dihydroacenaphthylen-4-yl)-4-hydroxybutanoic acid]
- Percentage of slow wave sleep with respect to the total duration of sleep (in parentheses) ([1]; 0.15 mmol/kg i.p.): 23%
- Duration of slow wave sleep ([1]; 0.15 mmol/kg i.p.): 53 ± 7 min
- Increase of the duration of slow wave sleep ([1]; 0.15 mmol/kg i.p.): 42 min
- Percentage of slow wave sleep with respect to the total duration of sleep (in parentheses) ([1]; 0.28 mmol/kg i.p.): 28%
- Duration of slow wave sleep ([1]; 0.28 mmol/kg i.p.): 61 ± 8 min
- Increase of the duration of slow wave sleep ([1]; 0.28 mmol/kg i.p.): 50 min
- IC50 ([2]; affinity for the GHB receptor, repeated in Table 4, read-out: IC50): 80 nM
- IC50 [2, 4]: 80 nM
